The values that follow come from patent publication US9770469B2, “Methods of reprogramming renal cells” (Tel HaShomer Medical Research Infrastructure and Services …, priority 2009, dated 2017).

One assay concerns HAK cells. Kind of assay: Culture passage with transient or constant VPA (qRT-PCR, morphology). Type of assay: cell-based, human. The note with it: for cell morphology: culture passage. Here is the method: Quantitative Reverse Transcription-PCR: Total RNA from kidney tissue cultured cells was isolated using the TRIZOL reagent (Invitrogen) according to the manufacturer's protocols. cDNA synthesis was carried out using Verso kit (Thermo scientific) with Random primers. Quantitative RT PCR was performed using an ABI7900HT sequence detection system (Perkin-Elmer/Applied Biosystems) in the presence of SYBR green (SYBR green PCR kit; Qiagen). Each analysis reaction was performed in duplicates or triplicates. GapDH was used as an endogenous control throughout all experimental analyses. Analysis was performed using the −ΔΔCt method, which determines fold changes in gene expression relative to a comparator sample. Maintaining re-induction of Six2/Osr1 in cultured human kidney cells is potentially important if such cells were to be propagated in vitro for the purpose of cell therapy. The present inventors therefore determined whether Six2 and Osr1 are maintained upon tissue culture passage of adult cells. Two treatment protocols were employed; the first, 24-hour exposure to 4 mM VPA and the second constant exposure to VPA.
For orientation: Real-time PCR tracks product formation cycle by cycle.

Another assay has as its system adult kidney cells. As to the kind of experiment: Methylation immunoprecipitation (MeDIP) of Six2 and Wt1 promoters. Type of assay: cell-based, human. Here is the method: […] (MeDIP): 10 μg of sonicated genomic DNA (100-400 bp in length) was denatured, incubated 0/N at 4° C. with […] of anti-methyl cytosine antibody (Diagenode, Belgium), and subsequently with 60 μl of protein A fast flow beads (Upstate Biotechnologies) for 2 hours at 4° C. The beads were washed and incubated with digestion buffer (50 mM Tris-HCl pH 8.0, 10 mM EDTA, 0.5% SDS) and proteinase K for 3 hours and the DNA extracted by phenol-chloroform and EtOH precipitation. The samples were tested by quantitative RT PCR with the indicated primers at table 2. The sonicated DNA served as input.

Where [1] appears, read: P0 cells, transient 24-hour exposure to 4 mM VPA.
[2] abbreviates: later passages, transient 24-hour exposure to 4 mM VPA.

Regarding `CCCC(CCC)C(=O)O` [VPA, valproic acid], the Osr1 gene levels entry in the assay with HAK cells (setting [1]) is “re-induced”; with HAK cells (setting [2]) it was “remained similar to controls”. Moreover, the Six2 gene levels entry in the assay with HAK cells (setting [1]) is recorded as “re-induced”; in the assay with HAK cells (constant VPA exposure, P3 cells), “even further up-regulated”; in the assay on HAK cells (setting [2]), “remained similar to controls”. The “Osr1 gene levels upon culture passage” value in the assay with HAK cells (constant VPA exposure, P1-P3) is “significant Six2 and Osr1 re-induction”. Moreover, in the assay on HAK cells (constant VPA exposure, P1-P3), the “Six2 gene levels upon culture passage” value is “significant Six2 and Osr1 re-induction”. Besides, the results for the cell morphology result in the assay on HAK cells (constant VPA exposure) and in the assay on HAK cells (transient 24-hour VPA exposure) were “epithelial-like cell morphology” and “fibroblastic morphology”, respectively. Further, the “DNA methylation on Wt1 promoter” value in the assay with adult kidney cells (VPA treatment) is recorded as “minimally effected”. The “DNA methylation at the Six2 promoter” value in the assay with adult kidney cells (with or without VPA) is given as “DNA hypomethylation at the Six2 promoter loci regardless of VPA treatment”.
